Test systems include NCI-H226 lung; CCRF-CEM leukemia; SF-295 CNS; NCI/ADR-RES ovarian; HCT-15 colon; COLO 205 colon; BT-549 breast; UACC-62 melanoma; OVCAR-4 ovarian; HCT-116 colon.
Common to all, as to experiment: NCI tumour cell line growth inhibition, 48 h

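Assay format: 96-well plates, 48-hour exposure. The concentration for 50% growth inhibition is given as GI50. Definition used: TGI = concentration required for complete inhibition of growth.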

For the compound `O=C(c1cccs1)c1c(C(F)(F)F)n([O-])c2ccccc2[n+]1=O`, the GI50 is 1.05 µM in the experiment with NCI-H226 lung; 6.69 µM with CCRF-CEM leukemia; 0.941 µM in the experiment with SF-295 CNS; 0.677 µM in the experiment on NCI/ADR-RES ovarian; 0.432 µM in the experiment on HCT-15 colon; 1.66 µM in the experiment with COLO 205 colon. In addition, the GI50 was 0.908 µM in the experiment with BT-549 breast, 0.743 µM in the experiment with UACC-62 melanoma, 0.941 µM with OVCAR-4 ovarian and 0.41 µM with HCT-116 colon. The TGI in the experiment on NCI-H226 lung came to 3.12 µM; in the experiment on CCRF-CEM leukemia it was 13.1 µM; in the experiment on SF-295 CNS, 2.43 µM; in the experiment with NCI/ADR-RES ovarian, 1.94 µM; in the experiment on HCT-15 colon, 1.1 µM; with COLO 205 colon it was 9.89 µM. In addition, the TGI in the experiment with BT-549 breast is 2.37 µM; with UACC-62 melanoma, 1.6 µM; in the experiment on OVCAR-4 ovarian it was 3.09 µM; in the experiment with HCT-116 colon, 1.07 µM.
Turning to `COc1cc(C(=O)NC2c3ccccc3-c3ccccc32)c(N)cc1OCc1ccccc1`, the GI50 with NCI-H226 lung was 11.4 µM; in the experiment on CCRF-CEM leukemia it was over 100 µM; with SF-295 CNS, 15.4 µM; in the experiment with NCI/ADR-RES ovarian it was 35.3 µM; in the experiment with HCT-15 colon it was over 74.8 µM; with COLO 205 colon it was 63.9 µM. The GI50 was 17 µM with BT-549 breast, 20.1 µM in the experiment on UACC-62 melanoma, 5.16 µM with OVCAR-4 ovarian and 20.3 µM in the experiment with HCT-116 colon. The TGI in the experiment on NCI-H226 lung was 44.3 µM; in the experiment on CCRF-CEM leukemia, over 100 µM; with SF-295 CNS, 41 µM; with NCI/ADR-RES ovarian, over 100 µM; in the experiment on HCT-15 colon it was over 100 µM; in the experiment on COLO 205 colon, over 100 µM. Moreover, the TGI in the experiment with BT-549 breast is 42.2 µM; in the experiment on UACC-62 melanoma, 67.5 µM; in the experiment with OVCAR-4 ovarian, 32.2 µM; with HCT-116 colon it was over 82.7 µM.
For the compound `NC(N)=N/N=C(/c1ccccc1)c1ccc(F)cc1`, the GI50 with NCI-H226 lung is 1.06 µM; with CCRF-CEM leukemia, 0.493 µM; with SF-295 CNS it was 0.243 µM; with NCI/ADR-RES ovarian, 0.766 µM; with HCT-15 colon, 0.4 µM; in the experiment on COLO 205 colon it was 0.267 µM. The GI50 in the experiment with BT-549 breast is 0.551 µM; in the experiment with UACC-62 melanoma, 0.421 µM; in the experiment on OVCAR-4 ovarian it was 1.01 µM; in the experiment with HCT-116 colon, 0.33 µM. Moreover, the TGI in the experiment on NCI-H226 lung was 14.5 µM; in the experiment with CCRF-CEM leukemia it was over 74.6 µM; in the experiment with SF-295 CNS, 2.25 µM; with NCI/ADR-RES ovarian, 4.19 µM; with HCT-15 colon, 13.4 µM; with COLO 205 colon, 0.841 µM. For the same compound, the TGI amounted to 2.85 µM with BT-549 breast, 15.5 µM with UACC-62 melanoma, 37.7 µM with OVCAR-4 ovarian and 4.15 µM with HCT-116 colon.
Take `COc1c(C2CC(=O)Nc3c2cnn3Cc2ccco2)cc2c(c1OC)OCO2` (stereo not drawn): the GI50 with NCI-H226 lung is 3.85 µM; in the experiment on CCRF-CEM leukemia, 0.597 µM; in the experiment on SF-295 CNS, 0.573 µM; in the experiment on NCI/ADR-RES ovarian, 1.08 µM; in the experiment on HCT-15 colon, 0.431 µM; in the experiment on COLO 205 colon it was 0.332 µM. In addition, the GI50 in the experiment with BT-549 breast was 1.1 µM; with HCT-116 colon, 0.457 µM. Also, the TGI is over 100 µM in the experiment with NCI-H226 lung; over 100 µM with CCRF-CEM leukemia; over 30.5 µM with SF-295 CNS; over 100 µM with NCI/ADR-RES ovarian; over 100 µM in the experiment with HCT-15 colon; 2.86 µM in the experiment with COLO 205 colon. Moreover, the TGI in the experiment on BT-549 breast, in the experiment with UACC-62 melanoma, in the experiment with OVCAR-4 ovarian and in the experiment on HCT-116 colon was over 100 µM in each case.
Regarding `CCCCCCCCCCCCCC(=S)NCCCC[C@H](NC(=O)OCc1ccccc1)C(=O)Nc1ccccc1`, the GI50 in the experiment on NCI-H226 lung is 5.71 µM; in the experiment with CCRF-CEM leukemia, 4.04 µM; in the experiment with SF-295 CNS, 3.4 µM; in the experiment on NCI/ADR-RES ovarian, 5.11 µM; with HCT-15 colon, 3.52 µM; in the experiment on COLO 205 colon, 3.87 µM. Besides, the GI50 in the experiment on BT-549 breast is 39.6 µM; in the experiment with UACC-62 melanoma it was 3.51 µM; in the experiment with OVCAR-4 ovarian it was 3.9 µM; in the experiment with HCT-116 colon, 3.77 µM. Further, the TGI in the experiment on NCI-H226 lung was over 100 µM; with CCRF-CEM leukemia it was over 100 µM; in the experiment on SF-295 CNS, 72.1 µM; with NCI/ADR-RES ovarian it was over 100 µM; in the experiment with HCT-15 colon, over 100 µM; with COLO 205 colon it was 22.5 µM. For the same compound, the TGI in the experiment with BT-549 breast, with UACC-62 melanoma, in the experiment on OVCAR-4 ovarian and in the experiment on HCT-116 colon was over 100 µM in each case.
For `COc1ccc(C(=S)N2CCN(c3cccc(Cl)c3)CC2)cc1`, the GI50 is over 100 µM in the experiment on NCI-H226 lung; over 100 µM in the experiment with CCRF-CEM leukemia; 95.9 µM with SF-295 CNS; 97 µM in the experiment with NCI/ADR-RES ovarian; over 100 µM in the experiment with HCT-15 colon; over 100 µM in the experiment on COLO 205 colon. In addition, the GI50 with BT-549 breast is over 100 µM; with UACC-62 melanoma, 78.2 µM; in the experiment with OVCAR-4 ovarian it was over 100 µM; with HCT-116 colon, over 100 µM. Moreover, the TGI in the experiment with NCI-H226 lung, in the experiment on CCRF-CEM leukemia, in the experiment with SF-295 CNS, with NCI/ADR-RES ovarian, with HCT-15 colon and in the experiment on COLO 205 colon was over 100 µM in each case. The TGI in the experiment with BT-549 breast, with UACC-62 melanoma, with OVCAR-4 ovarian and in the experiment with HCT-116 colon was over 100 µM throughout.
With `Nc1n[nH]c2ccc([C@@H]3Nc4ccc5[nH]ncc5c4[C@H]4[C@H]5CCC(C5)[C@H]43)cc12`, the GI50 in the experiment on NCI-H226 lung is 0.331 µM; with CCRF-CEM leukemia it was 0.383 µM; in the experiment on SF-295 CNS, 0.302 µM; with NCI/ADR-RES ovarian it was 0.525 µM; in the experiment on HCT-15 colon, 0.407 µM; in the experiment with COLO 205 colon it was 0.375 µM. For the same compound, the GI50 in the experiment with BT-549 breast was 0.489 µM; in the experiment with UACC-62 melanoma it was 0.389 µM; with OVCAR-4 ovarian, 2.05 µM; in the experiment on HCT-116 colon it was 0.404 µM. In addition, the TGI in the experiment with NCI-H226 lung was 2.88 µM; in the experiment with CCRF-CEM leukemia, over 100 µM; in the experiment with SF-295 CNS, 3.47 µM; with NCI/ADR-RES ovarian it was over 44.1 µM; in the experiment on HCT-15 colon, over 100 µM; in the experiment on COLO 205 colon, 5.68 µM. In addition, the TGI was 9.29 µM in the experiment on BT-549 breast, over 61.1 µM with UACC-62 melanoma, over 100 µM in the experiment on OVCAR-4 ovarian and over 100 µM with HCT-116 colon.
